Read-outs that look alike come from different tables or passages of the source.
How the values were obtained:
HeLa cells = assay: Scratch test of cell motility, HeLa; type: cell-based, human; conditions: 10 μg/mL, 24 h, serum-free, nontreated 29.3 ± 2.0%
Experimental: To evaluate the ability of tested adducts to inhibit cell-motility-associated metastasis, a scratch test was performed on the HeLa, CT26, and Vero cell lines. The results are shown in Figure 11, Figure 12 and Figure 13. Nontreated HeLa cells filled the scratched strip at 29.3 ± 2.0%, while cells filled 10.4 ± 1.8%, 11.2 ± 1.1%, 20.2 ± 2.9%, 4.8 ± 1.9%, and 11.7 ± 1.8% of the scratched strip under treatment with adducts 4d, 4e, 4f, 4h, and 4i, respectively (Figure 11).
Cells were seeded onto Petri dishes at a density of 5 × 10^5 cells per dish and grown to confluency. Scratch wounds were made with a 200 μL pipette tip, after which detached cells were removed by washing with phosphate-buffered saline. In order to inhibit cell proliferation, culture media was replaced to serum-free DMEM. Compounds 4d, 4e, 4f, […] were added to the cultures at a dose of 10 μg/mL and incubated for 24 h. After that, the cells were stained with Hoechst 33,342 (Thermo Fisher Scientific, Waltham, MA, USA), by adding 2 μL of 1 mg/mL stock solution to 2 mL of medium and DIBAC4 (3) (Thermo Fisher Scientific, Waltham, MA, USA) at the same dose. Images were captured using confocal microscope (Axio Observer Z1, Carl Zeiss MicroImaging GmbH, Jena, Germany). The percentage of wound closure in five randomly chosen fields was calculated with NIH ImageJ software.

[1] = test system: human erythroleukemia (K562) cell line; assay: MTS antiproliferative (cytotoxicity) assay, K562; type: cell-based; conditions: for IC50: Homo sapiens; for SI (selectivity index), K562: Vero as reference cell line
Experimental: The cytotoxicity of synthesized 3-azaspiro[bicyclo[3.1.0]hexane-2,5′-pyrimidines] 4 against human erythroleukemia (K562), cervical carcinoma (HeLa), and T lymphocyte (Jurkat), as well as mouse colon carcinoma (CT26) and African green monkey kidney epithelial (Vero) cell lines as reference, was evaluated in vitro by the standard MTS assay for 24 and 72 h.
(§1) All the cell lines (human cervical carcinoma (HeLa), erythroleukemia (K-562), and T lymphocyte (Jurkat) as well as mouse colon carcinoma (CT26) and African green monkey kidney epithelial (Vero)) were obtained from the cell repository “Vertebrate cell culture collection” (supported by the Ministry of Science and Higher Education of the Russian Federation, agreement №075-15-2021-683, Institute of Cytology, Russian Academy of Sciences, Saint Petersburg, Russia). HeLa, Jurkat, and Vero cells were cultured in DMEM (HyClone, South Logan, UT, USA) supplemented with 10% (v/v) fetal bovine serum (Hyclone, GE Healthcare Life Sciences, Logan, UT, USA), and gentamicin (Sigma-Aldrich, St. Louis, MO, USA) at 37 °C in a humidified atmosphere with 5% CO2. K-562 and CT26 cells were grown at RPMI medium (Hyclone, GE Healthcare Life Sciences, Logan, UT, USA), with the same supplements and conditions.
(§2) To evaluate the in vitro toxicity of compounds synthesized, cells were seeded into 96-well plates at a density of 5 × 10^3 cells per well. On the next day, tested compounds were added to the wells at concentrations ranging from […], followed by incubation for 1 and 3 days. Cell proliferation was determined by adding 20 μL of MTS reagent (BioVision, Milpitas, CA, USA) stock solution per well. Each plate was incubated for 2 h at 37 °C in a humidified, 5% CO2 atmosphere. The plates were then read at 495 nm using plate spectrophotometer (Multiskan GO, Thermo Fisher Scientific, Waltham, MA, USA). All samples were measured in triplicates.

[2] = test system: human T lymphocyte (Jurkat) cell line; assay: MTS antiproliferative (cytotoxicity) assay, Jurkat; type: cell-based; conditions: for IC50: Homo sapiens, MTS; for SI (selectivity index), Jurkat: Vero as reference cell line
Experimental: The cytotoxicity of synthesized 3-azaspiro[bicyclo[3.1.0]hexane-2,5′-pyrimidines] 4 against human erythroleukemia (K562), cervical carcinoma (HeLa), and T lymphocyte (Jurkat), as well as mouse colon carcinoma (CT26) and African green monkey kidney epithelial (Vero) cell lines as reference, was evaluated in vitro by the standard MTS assay for 24 and 72 h. The results are presented in Figure 1, Figure 2, Figure 3, Figure 4 and Figure 5 (data on all, tested on K562, HeLa, and CT26 cell lines’ compounds, are given at SI, Figures S1–S3). […] Replacement of the phenyl group by either the carboxymethyl or N-isopropylcarbamoyl group has led to a significant decrease in the activity of spiro-fused cycloadducts comprising azabicyclo[3.1.0]hexane and alloxane moieties.
as §1, §2

Vero cells = assay: Actin cytoskeleton staining (rhodamine-phalloidin, confocal microscopy), Vero; type: cell-based, African green monkey; conditions: 5 μg/mL, 24 h
Experimental: Therefore, in the current study, the actin cytoskeleton structure of HeLa, CT26, and Vero cells was analyzed, after the impact of compounds 4a–i, by the presence of filopodia-like protrusions and the availability of stress fibers (Figure 14, Figure 15 and Figure 16). […] HeLa cells were more sensitive to the action of tested products, compared to CT26 and Vero cells.
Cells were seeded onto Petri dishes with cover slips at a density of 2 × 10^5 cells per dish and incubated for 24 h. After that, cells were treated with compounds 4d, 4e, 4f, 4h, and 4i (5 μg/mL) for 24 h. The medium was removed, and cells were fixed with 4% paraformaldehyde (Sigma-Aldrich, St. Louis, MO, USA), washed three times with PBS, and permeabilized with 0.3% Triton-X100 (Sigma-Aldrich, St. Louis, MO, USA). The cells were rinsed three times with PBS. Actin filaments (microfilaments) were stained at 37 °C for 15 min with rhodamine-phalloidin (Invitrogen, Carlsbad, CA, USA). The samples were rinsed three times with PBS, followed by embedding in Fluoroshield medium (Sigma-Aldrich, St. Louis, MO, USA). Cells were imaged using an Axio Observer Z1 confocal microscope (Carl Zeiss MicroImaging GmbH, Jena, Germany). In each experiment, at least 30 cells were imaged. Images were analyzed by a pathologist, blinded to the treatment mode used for each group, using ImageJ software.

[3] = K562, 24 h, read-out: IC50, K562, 24 h
[4] = K562, 72 h, read-out: IC50, K562, 72 h
[5] = 24 h, read-out: IC50, Jurkat, 24 h
[6] = 72 h, read-out: IC50, Jurkat, 72 h

Q: For `CCCC[C@@H]1NC2(C(=O)NC(=O)NC2=O)[C@]2(c3ccccc3)[C@@H](c3ccccc3)[C@]12c1ccccc1` [Compound 4e], which “scratched strip filled by cells” value (HeLa cells) is on record?
A: The value was 11.2 ± 1.1%.

Q: What about the IC50 [1, 3] of the same compound?
A: The IC50 was 17 ± 2 µM.

Q: What about the IC50 [1, 4] of the same compound?
A: The IC50 was 4 ± 2 µM.

Q: And the “SI (selectivity index), K562” value [1]?
A: Its value is 2.5.

Q: What about the IC50 [2, 5] of the same compound?
A: Its IC50 is 12 ± 2 µM.

Q: What about the IC50 [2, 6] of the same compound?
A: Its IC50 is 9 ± 2 µM.

Q: What about the “SI (selectivity index), Jurkat” value [2] of the same compound?
A: The value was 1.2.

Q: And the “percentage of cells with disassembled stress fibers (D)” value (shortened to “percentage of cells … (D)”) (Vero cells)?
A: Its value is 11%.

Q: And the “percentage of cells with filopodia-like deformations (A)” value (“percentage of cells … (A)” below) (Vero cells)?
A: Its value is 44%.

Q: What about the “percentage of cells with normal stress fibers (C)” value (shortened to “percentage of cells … (C)”) (Vero cells) of the same compound?
A: Its value is 89%.

Q: And the “percentage of cells without filopodia-like deformations (B)” value (Vero cells)?
A: Its value is 56%.

Q: For `CCC[C@@H]1NC2(C(=O)NC(=O)NC2=O)[C@]2(c3ccccc3)[C@@H](c3ccccc3)[C@]12c1ccccc1` [Compound 4d], which “scratched strip filled by cells” value (HeLa cells) is on record?
A: The value was 10.4 ± 1.8%.

Q: What about the IC50 [1, 3] of the same compound?
A: The IC50 was 21 ± 4 µM.

Q: And the IC50 [1, 4]?
A: Its IC50 is 9 ± 2 µM.

Q: And the “SI (selectivity index), K562” value [1]?
A: The value was 1.8.

Q: And the IC50 [2, 5]?
A: Its IC50 is 15 ± 2 µM.

Q: What about the IC50 [2, 6] of the same compound?
A: The IC50 was 13 ± 2 µM.

Q: And the “SI (selectivity index), Jurkat” value [2]?
A: The value was 1.3.

Q: What about the “percentage of cells … (D)” value (Vero cells) of the same compound?
A: The value was 6%.

Q: And the “percentage of cells … (A)” value (Vero cells)?
A: The value was 45%.

Q: What about the “percentage of cells … (C)” value (Vero cells) of the same compound?
A: Its value is 94%.

Q: And the “percentage of cells without filopodia-like deformations (B)” value (Vero cells)?
A: Its value is 55%.

Q: What does the source list for `CC[C@@H]1NC2(C(=O)NC(=O)NC2=O)[C@]2(c3ccccc3)[C@@H](c3ccccc3)[C@]12c1ccccc1` [Compound 4c]?
A: IC50 [1, 3]: 12 ± 2 µM; IC50 [1, 4]: 5 ± 2 µM; SI (selectivity index), K562 [1]: 3.2; IC50 [2, 5]: 149 ± 33 µM; IC50 [2, 6]: 15 ± 2 µM; SI (selectivity index), Jurkat [2]: 1.1

Q: With `O=C1NC(=O)C2(N[C@@H](c3ccccc3)[C@@]3(c4ccccc4)[C@H](c4ccccc4)[C@@]23c2ccccc2)C(=O)N1` [Compound 4i] as the compound, how does the “scratched strip filled by cells” value (HeLa cells) read?
A: Its value is 11.7 ± 1.8%.

Q: What about the IC50 [1, 3] of the same compound?
A: The IC50 was 26 ± 4 µM.

Q: And the IC50 [1, 4]?
A: Its IC50 is 8 ± 4 µM.

Q: What about the “SI (selectivity index), K562” value [1] of the same compound?
A: Its value is 2.9.

Q: What about the IC50 [2, 5] of the same compound?
A: Its IC50 is 19 ± 2 µM.

Q: And the IC50 [2, 6]?
A: The IC50 was 14 ± 4 µM.

Q: What about the “SI (selectivity index), Jurkat” value [2] of the same compound?
A: Its value is 1.7.

Q: What about the “percentage of cells … (D)” value (Vero cells) of the same compound?
A: The value was 2%.

Q: And the “percentage of cells … (A)” value (Vero cells)?
A: Its value is 30%.

Q: And the “percentage of cells … (C)” value (Vero cells)?
A: Its value is 98%.

Q: And the “percentage of cells without filopodia-like deformations (B)” value (Vero cells)?
A: Its value is 70%.

Q: Which results are given for `CSCC[C@@H]1NC2(C(=O)NC(=O)NC2=O)[C@]2(c3ccccc3)[C@@H](c3ccccc3)[C@]12c1ccccc1` [Compound 4h]?
A: scratched strip filled by cells (HeLa cells): 4.8 ± 1.9%; IC50 [1, 3]: 20 ± 4 µM; IC50 [1, 4]: 10 ± 2 µM; SI (selectivity index), K562 [1]: 2.2; IC50 [2, 5]: 18 ± 4 µM; IC50 [2, 6]: 13 ± 4 µM; SI (selectivity index), Jurkat [2]: 1.7; percentage of cells with disassembled stress fibers (D) (Vero cells): 8%; percentage of cells with filopodia-like deformations (A) (Vero cells): 46%; percentage of cells with normal stress fibers (C) (Vero cells): 92%; percentage of cells without filopodia-like deformations (B) (Vero cells): 54%

Q: Which IC50 [1, 3] does the source give for `CCCCCC[C@@H]1NC2(C(=O)NC(=O)NC2=O)[C@]2(c3ccccc3)[C@@H](c3ccccc3)[C@]12c1ccccc1` [Compound 4g] here?
A: Its IC50 is 19 ± 2 µM.

Q: And the IC50 [1, 4]?
A: Its IC50 is 10 ± 2 µM.

Q: What about the “SI (selectivity index), K562” value [1] of the same compound?
A: The value was 1.4.

Q: And the IC50 [2, 5]?
A: Its IC50 is 11 ± 2 µM.

Q: And the IC50 [2, 6]?
A: The IC50 was 8 ± 2 µM.

Q: And the “SI (selectivity index), Jurkat” value [2]?
A: Its value is 1.8.

Q: How did the “scratched strip filled by cells” value (HeLa cells) turn out when `CC(C)C[C@@H]1NC2(C(=O)NC(=O)NC2=O)[C@]2(c3ccccc3)[C@@H](c3ccccc3)[C@]12c1ccccc1` [Compound 4f] was run?
A: Its value is 20.2 ± 2.9%.

Q: What about the IC50 [1, 3] of the same compound?
A: Its IC50 is 17 ± 4 µM.

Q: What about the IC50 [1, 4] of the same compound?
A: Its IC50 is 6 ± 2 µM.

Q: And the “SI (selectivity index), K562” value [1]?
A: Its value is 1.7.

Q: And the IC50 [2, 5]?
A: The IC50 was 11 ± 2 µM.

Q: And the IC50 [2, 6]?
A: Its IC50 is 9 ± 2 µM.

Q: What about the “SI (selectivity index), Jurkat” value [2] of the same compound?
A: Its value is 1.2.

Q: And the “percentage of cells … (D)” value (Vero cells)?
A: The value was 4%.

Q: What about the “percentage of cells … (A)” value (Vero cells) of the same compound?
A: The value was 43%.

Q: What about the “percentage of cells … (C)” value (Vero cells) of the same compound?
A: The value was 96%.

Q: What about the “percentage of cells without filopodia-like deformations (B)” value (Vero cells) of the same compound?
A: Its value is 57%.

Source: publication PMC9506420, “Biological Evaluation of 3-Azaspiro[Bicyclo[3.1.0]Hexane-2,5′-Pyrimidines] as Potential Antitumor Agents” (International Journal of Molecular Sciences, 2022)
